From patent EP4751721A1, “COMPOSITION CONTAINING NOVEL COMPOUND FOR PREVENTING OR TREATING PARKINSON'S DISEASE” (PRG S&Tech Inc., priority 2023, dated 2025)

Experiments:
normal human fibroblasts = experiment: Cell viability (MTT assay) in normal human fibroblasts; format: cell-based; details: 48 h; for cytotoxic effects (cell viability, MTT): normal human fibroblasts, FIG. 3
Protocol: SK-N-SH cells were purchased from the Korean Cell Line Bank (KCLB, Seoul, South Korea) and maintained in MEM medium containing 10% fetal bovine serum, 1% antibiotics, 25 mM HEPES, and 300 mg/L L-Glu. Human fibroblasts (person) were obtained from Coridll Cell Repositories (New Jersey, USA) and maintained in EMEM containing 15% FBS and 2 mM glutamine, along with 26 mM HEPES without antibiotics.
To investigate cell viability, cells were treated with chemicals (PRG-A compound) for 48 h. Then, the cells were incubated with 0.5 mg/ml 3-(4,5-dimethylthiazol-2-yl)-2,5-diphenyltetrazolium bromide (MTT) solution (475989; Merck, Darmstadt, Germany) at 37°C for 4 h. After removing the excess solution and washing with PBS, the precipitated substances were dissolved in 200 µl of DMSO and quantified by measuring the absorbance at 540 nm.
Lastly, to determine the toxicity of PRG-A compounds, normal human fibroblasts and neuroblastoma cells (SK-N-SH) were cultured with each compound for 48 h, and cell viability was measured via the MTT assay. The effect on survival rates of neuronal cells and normal fibroblasts was identified (FIG. 3).

[1] = target: T1, synuclein mutant (Syn-A53T) (Homo sapiens, UniProt P37840, A53T); experiment: Insoluble/soluble synuclein fractionation by Western blot in SK-N-SH cells transfected with MT-Syn (Syn-A53T); format: cell-based; details: treated for 24 h, pellet (insoluble) vs supernatant, FIG. 1B
T1 construct: FLAG; host or cells: SK-N-SH
Protocol: For SDS-PAGE, proteins were extracted from cells using RIPA buffer (50 mM Tris-Cl, pH 7.5, 150 mM NaCl, 1% NP-40, 0.1% SDS, and […] sodium deoxycholate). Samples were separated by SDS-PAGE and transferred to a PVDF membranes. The blotted membrane was blocked with 3% skim milk containing TBST buffer for 1 h and incubated with specific antibodies. Reacted antibodies were detected by ECL and X-ray film exposure. The antibody used in this experiment was pan-Syn (GTX112799), purchased from Genetex (California, USA). Actin antibody (66009-1-lg) and α-tubulin antibody (66240-1-lg) were obtained from Proteintech (Rosemont, IL, USA). Anti-FLAG (Sigma; F3165) from Sigma Aldrich (St, Louis, MO, USA) was used as a […], and HRP-conjugated goat anti-mouse, goat anti-rabbit, and mouse anti-goat antibodies (Pierce, Thermo Fisher Scientific, Inc., Rockford, IL, USA) were used. FLAG-Syn-WT and MT vectors were transfected into SK-N-SH cells for 24 h. […]
To identify the effect of the PRG-A compound on alpha-synuclein aggregation, the inventors transfected the FLAG-Syn-A30P vector into SK-N-SH cells for 24 h. […] Expression of synuclein was observed under a fluorescence microscope with a pan-Syn antibody (white arrow; high intensity of Syn).

Syn^A53T-Tg mice = experiment: In vivo treatment and histological analysis in Parkinson's disease (PD) mouse model
Protocol: Experiments were conducted in approved facility of Association for Assessment and Accreditation of Laboratory Animal Care in accordance with animal policies approved by Pusan National University. B6.Cg-Tg (Prnp-SNCAA53T)/J mice were obtained from Jackson Laboratory (Stock No: 006823). All mice were maintained under temperature- and light-controlled conditions (20-23°C, 12 h-12 h light/dark cycle) and provided with autoclaved food and water.
24 week-old Syn^A53T-Tg mice were administered vehicle (DMSO), PRG-A-03, and PRG-A-04 intraperitoneally twice a week for 24 to 26 weeks. Control mice were treated under the same conditions. Mice were sacrificed at 48-52 weeks of age for histological analysis. After cardiac perfusion with 4% paraformaldehyde, the brains were dissected and embedded in paraffin blocks according to standard tissue processing procedures. Embedded tissue ([…]) was cut into 5 µm sections using a tissue sectioner (Leica microtome) and transferred to adhesive-coated slides (Marienfeld laboratory glassware, Germany). For histological pathologic analysis of Syn^A53T-Tg mice, immunohistochemistry (IHC) using a dopaminergic neuronal marker (Tyrosine Hydroxylase) was performed after deparaffinization and rehydration. To monitor dopaminergic neurons by immunofluorescence (IF), dissected brains were embedded in agarose holders and sectioned with a vibratome. Thinly sliced tissues were treated with a blocking solution (normal donkey serum diluted 1:500 in 0.1% Triton X-100 PBS) for 1 h. Cells were incubated with anti-TH antibody (diluted 1:500) overnight at 4°C. Finally, cells were incubated with FITC-conjugated secondary antibody at 4°C for 2 h. Cells were washed three times with PBS, and coverslips were mounted using mounting solution (H-5501, Vector Laboratories), followed by analysis by fluorescence microscopy (Zeiss). […]

Syn-A53T = target: T2, Syn-A53T (Homo sapiens, UniProt P37840, A53T); experiment: Immunofluorescence staining of aggregated synuclein in transfected cells; format: cell-based; details: Syn-A53T vector 24 h, compound 5 µM for 24 h, pan-Syn antibody, FIG. 1C
T2 construct: FLAG; host or cells: SK-N-SH

COc1cc(/C=C/CO[C@H]2Cc3cc4ccc(=O)oc4cc3OC2(C)C)ccc1O [PRG-A-02, (S,E)-7-((3-(4-hydroxy-3-methoxyphenyl)allyl)oxy)-8,8-dimethyl-7,8-dihydro-2H,6H-pyrano[3,2-g]chromen-2-one]
cytotoxic effects (cell viability, MTT) (normal human fibroblasts): did not exhibit cytotoxic effects

COc1cc(/C=C/C(=O)O[C@H]2Cc3cc4ccc(=O)oc4cc3OC2(C)C)ccc1O [PRG-A-01, (S)-8,8-dimethyl-2-oxo-7,8-dihydro-2H,6H-pyrano[3,2-g]chromen-7-yl (E)-3-(4-hydroxy-3-methoxyphenyl)acrylate]
cytotoxic effects (cell viability, MTT) (normal human fibroblasts): did not exhibit cytotoxic effects

COc1cc(/C=C/CO[C@H]2Cc3cc4ccc(=O)oc4cc3OC2(C)C)ccc1[N+](=O)[O-] [PRG-A-04, (S,E)-7-((3-(3-methoxy-4-nitrophenyl)allyl)oxy)-8,8-dimethyl-7,8-dihydro-2H,6H-pyrano[3,2-g]chromen-2-one]
insoluble synuclein [1]: reduce insoluble synuclein in a dose-dependent manner | loss of dopaminergic neurons in the SN by IF staining using TH (Syn^A53T-Tg mice; intraperitoneal, 20 mg/kg or 40 mg/kg, 24 to 26 weeks, FIG. 2D): prevents the loss of dopaminergic neurons | cytotoxic effects (cell viability, MTT) (normal human fibroblasts): did not exhibit cytotoxic effects

CC1(C)Oc2cc3oc(=O)ccc3cc2C[C@@H]1OC(=O)/C=C/c1ccc(F)cc1 [PRG-A-03, (S)-8,8-dimethyl-2-oxo-7,8-dihydro-2H,6H-pyrano[3,2-g]chromen-7-yl (E)-3-(4-fluorophenyl)acrylate]
phosphorylation of Tau in brain tissue (Syn^A53T-Tg mice; brain tissue of Syn-A53T Tg, FIG. 2C): suppresses phosphorylation of Tau | Dopaminergic neuron markers (Tyrosine Hydroxylase, TH) in the substantia nigra (SN), IHC (Syn^A53T-Tg mice; intraperitoneal, 20 mg/kg or 40 mg/kg, 24 to 26 weeks, FIG. 2B): maintained | impact on cell viability (MTT) (normal human fibroblasts; high doses (50 and 100 µM), cell type not given): low impact on cell viability

CC1(C)Oc2cc3oc(=O)ccc3cc2C[C@@H]1O [Chem-001, decursinol]
Aggregated synuclein (immunofluorescence) (Syn-A53T): marginal effects
